Laboratory results as given in US7566453B2, “Methods for treating melanomas” (Chugai Seiyaku Kabushiki Kaisha, priority 1998, dated 2009).

Test system: KPMM2 cells
Conditions: fixed concentration of anti-human IL-6 receptor antibody; 0.1 or 1 ng/ml IL-6 (FIG. 1 to 6)
Experimental: The effects of anti-human IL-6 receptor antibody on sensitivity of KPMM2 cells to chemotherapeutic agents used for treatment of myeloma such as adriamycin (ADR, manufactured by Kyowa Hakko), vincristine (VCR, manufactured by Sigma Chemical Co.), and melphalan (L-PAM, manufactured by Sigma Chemical Co.) were evaluated.
KPMM2 is a multiple myeloma cell line derived from the ascites of a human patient with myeloma (see Japanese Unexamined Patent Publication (Kokai) No. 7-236475). […] The growth activity of the cell was evaluated by incorporation of ^3H-labeled thymidine (manufactured by Amersham) into the cell.
The KPMM2 cells that had been maintained were washed thoroughly with a fresh medium (RPMI1640 medium supplemented with 20% FBS), and then were adjusted to 4×10^5/ml, which was dispensed in 50 μl aliquots in a 96-well flat-bottomed microtiter plate (manufactured by Falcon). Furthermore, a medium containing a recombinant human IL-6 (Asagoe, Y. et al., Bio/Technology (1988) 6, 806-809), anti-human IL-6 receptor antibody hPM-1 (see the above reference example 1 or International Patent Application WO 92-15759), and the above chemotherapeutic agents or a fresh medium as control were added to make 200 μl in each well.
The plate was incubated at 37° C. for 4 days under the humidified condition in the presence of 5% CO2. At four hours before the end of incubation, 10 μl of ^3H-labeled thymidine solution (100 μCi/ml) was added to each well, and then incubated for more 4 hours. At the end of incubation, the cells were collected onto the glass filter (manufactured by Printed Filtermat A, WALLAC) using a harvester (Micro 96 Harvester, manufactured by SKATRON Instruments). The radioactivity incorporated into the cells was measured by a microbeta (1450 MicroBeta, manufactured by WALLAC).
The activity of growth inhibition on KPMM2 was expressed using the effect by a chemotherapeutic agent alone as the control. Using the incorporation of ^3H-labeled thymidine into the cell for each experimental group in which a each concentration of a chemotherapeutic agent was added as 100, the amount of ^3H-labeled thymidine incorporated into the cell in an experimental group in which anti-human IL-6 receptor antibody was simultaneously added was compared as an index.

## CC[C@]1(O)C[C@H]2CN(CCc3c([nH]c4ccccc34)[C@@](C(=O)OC)(c3cc4c(cc3OC)N(C=O)[C@H]3[C@@](O)(C(=O)OC)[C@H](OC(C)=O)[C@]5(CC)C=CCN6CC[C@]43[C@@H]65)C2)C1 [vincristine]
  relationship of growth index with the concentration of chemotherapeutic agent: almost constant regardless of their concentration

## COc1cccc2c1C(=O)c1c(O)c3c(c(O)c1C2=O)C[C@@](O)(C(=O)CO)C[C@@H]3O[C@H]1C[C@H](N)[C@H](O)[C@H](C)O1 [adriamycin]
  relationship of growth index with the concentration of chemotherapeutic agent: almost constant regardless of their concentration
